# Experimental data as given in ChEMBL document CHEMBL1159179, “Glucuronide prodrugs of hydroxy compounds for antibody directed enzyme prodrug therapy (ADEPT) : A phenol nitrogen mustard carbamate” (Bioorg Med Chem Lett, 1997).
# pIC50: −log10 of the molar value.
# Legend:
# [1] = Half life period was determined; assay type: ADME; conditions: rat
# [2] = test system: LoVo; assay: Tested for the cytotoxic effect in LoVo cells, activity; assay type: functional, cell-based; conditions: Homo sapiens
compound,measurement,setting,value
CN(C(=O)Oc1ccc(N(CCCl)CCCl)cc1)c1cc([N+](=O)[O-])ccc1O[C@@H]1O[C@@H](C(=O)O)[C@@H](O)[C@H](O)[C@@H]1O,half-life,[1],44 min
same,pIC50,[2],< 3.08
